Laboratory results taken from US11603382B2, “Diastereoselective synthesis of phosphate derivatives” (NuCana plc, priority 2015, dated 2023).
Each block holds one compound with its values, some of them ahead of it.

Assays:
[1] = solubility in mixtures of polar organic solvents with water; format: physicochemical
Text: It has recently been discovered that the (S)-epimer of gemcitabine-[phenyl-benzoxy-L-alaninyl)]-phosphate has sufficient solubility in mixtures of a number of polar organic solvents with water to render it suitable for formulation and administration as a therapeutic agent. […] In certain solvent mixtures the difference in solubility between the (S)-epimer and the (R)-epimer is over 100 fold. It is expected therefore that more clinically effective, practical and patient friendly administration methods can be developed using the (S)-epimer than can be developed using the (R)-epimer or using the mixture. It is thus desirable to be able to provide gemcitabine-[phenyl-benzoxy-L-alaninyl)]-(S)-phosphate in substantially diastereoisomerically pure form.

[2] = system: isolated human hepatic cells; test: half-life on incubation with isolated human hepatic cells; format: in vitro ADME
Text: The longer half-life associated with (R)-isomer indicates a lower intrinsic clearance and should result in a different pharmacokinetic and pharmacodynamic profile to the (S)-isomer which may offer some benefits.

solubility in water = format: physicochemical; settings: regardless of salt content or pH
Method: NUC-1031 is extremely lipophillic and thus poorly water soluble (by calculation: <0.1 mg/mL), and the ionisable moieties have calculated pKas which lie out-side the pH range suitable for parenteral administration. […] It also has implications for the development of efficient manufacturing processes which will allow NUC-1031 to be produced cost effectively.

- solubility relative to the (S)-epimer ([1]; mixtures of polar organic solvents with water): considerably lower
- half-life relative to that of the (S)-epimer [2]: four times
SMILES: C[C@H](N[P@@](=O)(OC[C@H]1O[C@@H](n2ccc(N)nc2=O)C(F)(F)C1O)Oc1ccccc1)C(=O)OCc1ccccc1 (stereo partly drawn) [(R)-epimer]

- difference in solubility between the (S)-epimer and the (R)-epimer ([1]; in certain solvent mixtures (polar organic solvents with water), (S)-epimer over (R)-epimer): over 100 fold
SMILES: C[C@H](N[P@](=O)(OC[C@H]1O[C@@H](n2ccc(N)nc2=O)C(F)(F)C1O)Oc1ccccc1)C(=O)OCc1ccccc1 (stereo partly drawn) [(S)-epimer]

- solubility in water (solubility in water): essentially insoluble in water
SMILES: C[C@H](NP(=O)(OC[C@H]1O[C@@H](n2ccc(N)nc2=O)C(F)(F)C1O)Oc1ccccc1)C(=O)OCc1ccccc1 (stereo partly drawn) [NUC-1031, 2′-deoxy-2′,2′-difluoro-D-cytidine-5′-O-[phenyl(benzoxy-L-alaninyl)] phosphate]
